In patent US20260344670A1, “BIXLOZONE MIXTURES WITH PETHOXAMID” (FMC CORPORATION, priority 2022, published 2026):

Experiments:
Assay type in all cases: in vivo
CAGSE = assay: pre-emergence control of CAGSE in corn (efficacy, Colby synergy); settings: bixlozone 375, pethoxamid 1200, mixtures 375 + 1200 g/ha
Text: (§1) Various forms, compositions, and mixtures of bixlozone and pethoxamid were applied to corn before emergence. […] Mixtures of bixlozone with 1200 g/ha pethoxamid improved weed spectrum on a range of broad leaf weeds (e.g., CHEAL, MATSS, and POLSS) and grasses (e.g., ECHCG, DIGSA, and SETVI). Combinations of bixlozone and pethoxamid in pre-emergence applications were very safe with no clear pethoxamid rate effect.
(§2) Table 8. Efficacies of various forms and mixtures of bixlozone and pethoxamid after pre-emergence application on corn. Weeds were present at ≥5 pl/m^2. Concentrations are shown in parentheses in g/ha.
(§3) Table 11. Synergy data of various forms and mixtures of bixlozone and pethoxamid after pre-emergence application on corn at the crop row closure stage (BBCH 18). The notations in parentheses show the forms and amounts (in g/ha) of applied bixlozone and pethoxamid, respectively. Where “tank” is noted, the mix is a tank mix. Where “premix” is noted, the mix is a premix. Where there is no notation, the value shown is the Colby calculation for the expected value from separate mixtures.
(§4) Various forms, compositions, and mixtures of bixlozone and pethoxamid were applied to corn before emergence. […] Mixtures of bixlozone with 300 g/ha pethoxamid improved weed spectrum on a range of broad leaf weeds (e.g., SOLNI and ABUTH). […]

[1] = test system: Panicum dichotomiflorum (PANDI); assay: pre-emergence control of PANDI in corn (Colby synergy)
Text: (§5) [formula] • where ppm=milligrams of active ingredient (=a.i.) per liter of spray mixture X=% action by component A using p ppm of active ingredient Y=% action by component B using q ppm of active ingredient. If the ratio R defined as the action actually observed (O) divided by the expected action (E) is >1 then the action of the combination is superadditive, i.e. there is a synergistic effect. For a more detailed description of the Colby formula, see Colby, S. R. “Calculating Synergistic and Antagonistic Responses of Herbicide Combination”, Weeds, Vol. 15, pages 20-22; 1967; see also Limpel et al., Proc. NEWCC 16:48-53 (1962).
(§6) The herbicidal compounds bixlozone and pethoxamid were applied in a variety of forms and at a variety of amounts, application rates, and normalities. Efficacy of the herbicidal compositions was evaluated with reference to a scale of 0% to 100% in comparison with untreated control plots. 0 means no damage to the harmful plants and 100 means complete destruction of the harmful plants. Plants per square meter is indicated by “pl/m^2”, and grams per hectare is indicated by “g/ha”. The acronym “EC” means emulsifiable concentrate (a liquid, homogenous formulation to be applied as an emulsion after dilution with water); “SC” means suspension concentrate (a stable suspension of active ingredient(s) with water as the fluid); “ZC” refers to a mixed formulation of CS and SC (a stable suspension of capsules and active ingredient(s) in a fluid, normally intended for dilution with water before use).
as §1

Senecio vulgaris (SENVU) = assay: pre-emergence control of SENVU in corn (efficacy, Colby synergy); settings: bixlozone 375, pethoxamid 800, tank mix 375 + 800, premix 375 + 775 g/ha
Text: as §5
(§7) As used herein, rating timings correspond to the following: A1=weed assessment at BBCH 11-12; A2=4 weeks after the application; A3=when ZEAMX crop reaches BBCH 18 (row closure); and A4=BBCH 51-59 of the ZEAMX crop.
(§8) The herbicidal compounds bixlozone and pethoxamid were applied in a variety of forms and at a variety of amounts, application rates, and normalities. Efficacy of the herbicidal compositions was evaluated with reference to a scale of 0% to 100% in comparison with untreated control plots. 0 means no damage to the harmful plants and 100 means complete destruction of the harmful plants. Plants per square meter is indicated by “pl/m^2”, and grams per hectare is indicated by “g/ha”. […]

CHEPO = assay: pre-emergence control of CHEPO in corn (efficacy, Colby synergy); settings: bixlozone 375, pethoxamid 800, tank mix 375 + 800, premix 375 + 775 g/ha
Text: Table 10. Synergy data of various forms and mixtures of bixlozone and pethoxamid after pre-emergence application on corn at the crop row closure stage (BBCH 18). […] The notations in parentheses show the forms and amounts (in g/ha) of applied bixlozone and pethoxamid, respectively. Where “tank” is noted, the mix is a tank mix. Where “premix” is noted, the mix is a premix. Where there is no notation, the value shown is the Colby calculation for the expected value from separate mixtures.
as §1, with “800” for “1200”, “CHEAL” for “CHEAL, MATSS,”, “ABUTH)” for “POLSS)”
(§9) Table 12. Efficacies of various forms and mixtures of bixlozone and pethoxamid after pre-emergence application on corn. Weeds were present at ≥5 pl/m^2. Concentrations are shown in parentheses in g/ha.

[2] = test system: Amaranthus retroflexus (AMARE); assay: pre-emergence control of AMARE in corn (efficacy, Colby synergy)
Text: as §5, §7, §8

[3] = test system: Abutilon theophrasti (ABUTH); assay: pre-emergence control of ABUTH in corn (efficacy, Colby synergy)
Text: as §5, §7, §6
(§10) Various forms, compositions, and mixtures of bixlozone and pethoxamid were applied to corn before emergence. […] There was equivalent efficacy for fixed rate of bixlozone combined with pethoxamid: 1200 or 900 g/ha. Efficacy was reduced when bixlozone rate decreased from 250 to 150 g/ha. […]

[4] = test system: Lolium multiflorum (LOLMU); assay: pre-emergence control of LOLMU in corn (Colby synergy); settings: bixlozone 375, pethoxamid 1200, mixtures 375 + 1200 g/ha
Text: as §5, §8

[5] = test system: Persicaria lapathifolia (POLLA); assay: pre-emergence control of POLLA in corn (efficacy, Colby synergy)
Text: as §5, §7, §6, §10

VERPE = assay: pre-emergence control of VERPE in corn (efficacy, Colby synergy)
Text: as §3
as §1, with “800” for “1200”, “CHEAL” for “CHEAL, MATSS,”, “ABUTH)” for “POLSS)”
as §9, §4

Solanum nigrum (SOLNI) = assay: pre-emergence control of SOLNI in corn (efficacy, Colby synergy)
Text: as §5, §7, §6, §10

[6] = test system: Mercurialis annua (MERAN); assay: pre-emergence control of MERAN in corn (efficacy, Colby synergy)
Text: as §5, §7, §6, §10

[7] = test system: Portulaca oleracea (POROL); assay: pre-emergence control of POROL in corn (Colby synergy)
Text: as §5, §6, §1

[8] = test system: Digitaria sanguinalis (DIGSA); assay: pre-emergence control of DIGSA in corn (efficacy, Colby synergy); settings: bixlozone 375, pethoxamid 1200, mixtures 375 + 1200 g/ha
Text: as §5, §7, §8

[9] = test system: Echinochloa crus-galli (ECHCG); assay: pre-emergence control of ECHCG in corn (efficacy, Colby synergy)
Text: as §5, §7, §8

AMBEL = assay: pre-emergence control of AMBEL in corn (efficacy); settings: bixlozone 375, pethoxamid 1200, mixtures 375 + 1200 g/ha
Text: as §1, §2

[10] = test system: Sorghum halepense (SORHA); assay: pre-emergence control of SORHA in corn (efficacy, Colby synergy)
Text: as §5, §7, §8

POLHY = assay: pre-emergence control of POLHY in corn (efficacy); settings: bixlozone 375, pethoxamid 800, tank mix 375 + 800, premix 375 + 775 g/ha
Text: as §1, with “800” for “1200”, “CHEAL” for “CHEAL, MATSS,”, “ABUTH)” for “POLSS)”
as §9

[11] = bixlozone 375, pethoxamid 300, mixtures 375 + 300 g/ha
[12] = bixlozone 375, pethoxamid 800, tank mix 375 + 800, premix 375 + 775 g/ha
[13] = bixlozone 375, pethoxamid 1200, mixtures 375 + 1200 g/ha

CCOCCN(C(=O)CCl)C(=C(C)C)c1ccccc1 [pethoxamid]
Efficacy (CAGSE): 0
Efficacy [1, 11]: 68.8
Efficacy [1, 12]: 71.3
Efficacy [1, 13]: 84.8
Efficacy (Senecio vulgaris (SENVU)): 13.8
Efficacy (CHEPO): 30
Efficacy [2, 12]: 50.4
Efficacy [2, 13]: 57.5
Efficacy [3, 11]: 42.5
Efficacy [3, 12]: 38.9
Efficacy [3, 13]: 56.3
Efficacy [4]: 78.8
Efficacy [5, 11]: 42.2
Efficacy [5, 12]: 49.3
Efficacy [5, 13]: 87.8
Efficacy (VERPE; [11]): 46.3
Efficacy (VERPE; [12]): 54.4
Efficacy (Solanum nigrum (SOLNI); [11]): 28.8
Efficacy (Solanum nigrum (SOLNI); [12]): 52.5
Efficacy (Solanum nigrum (SOLNI); [13]): 76.5
Efficacy [6, 11]: 36.3
Efficacy [6, 12]: 16.9
Efficacy [6, 13]: 48.6
Efficacy [7, 11]: 48.8
Efficacy [7, 12]: 98.8
Efficacy [7, 13]: 94.6
Efficacy [8]: 82
Efficacy [9, 11]: 48.4
Efficacy [9, 13]: 85.5
Efficacy (AMBEL): 7.5
Efficacy [10, 12]: 80
Efficacy [10, 13]: 27.5
Efficacy (POLHY): 92.5
